Holding throughout (type): cell-based
One test relates to MM66 cells. The test is described as follows: Cell viability (XTT) on uveal melanoma cells MM66. The following applies: for metabolism of UM cells (XTT): MM66 cells, increasing doses, FIG. 2A. How it is done: (§1) FIG. 1: In vitro efficacy of MCK140 and MCK151 on uveal melanoma cells. Cells were treated for 48 hours with increasing doses of MCK140 or MCK151 and the cell viability was then evaluated by XTT.
(§2) FIG. 2A: In vitro efficacy of MCK151, Ladarixin, and AZD-5069 in uveal melanoma cells. MP41 and MM66 cells were treated for 48 hours with increasing doses of MCK151 or Ladarixin or AZD-5069 and the cell metabolism was then evaluated by XTT.
(§3) Cell culture: Uveal melanoma cells were derived from the primary tumor (eye tumor, MP38 and MP46) and one is from liver metastasis (MM66) were a kind gift from Dr. Roman Roman (Curie Institute). UM cells were cultured in RPMI medium supplemented with 20% FBS.
(§4) Cell viability (XTT): Cells (5×10^3 cells/100 μl) were incubated in a 96-well plate with different effectors for the times indicated in the figure legends. 50 μl of sodium 3′-[1-phenylaminocarbonyl)-3,4-tetrazolium]-bis(4-methoxy-6-nitro) benzene sulfonic acid hydrate (XTT) reagent was added to each well. The assay is based on the cleavage of the yellow tetrazolium salt XTT to form an orange formazan dye by metabolically active cells. Absorbance of the formazan product, reflecting cell viability, was measured at 490 nm. Each assay was performed in quadruplicate.
Background: Tetrazolium assays rely on reduction of a dye to a coloured formazan, in cell work by metabolically active cells.

Test [1] has as its system MP41 cells. The test can be described thus: Cell viability (XTT) on uveal melanoma cells MP41. The following applies: for IC50: MP41 cells (primary tumor); for metabolism of UM cells (XTT): MP41 cells, increasing doses, FIG. 2A. How it is done:
as §1, §2, §3, §4

Another test has as its system MP38 cells. The test is described as follows: Cell viability (XTT) on uveal melanoma cells MP38. How it is done: as §1, §3, §4
Test [2] has as its system MP41 cells. The test is described as follows: ROS assay (CellROX Deep Red, cytometry). Particulars: MCK151 1, 2.5, 5 μM, Ladarixin 10 μM, FIG. 2B. How it is done:
FIG. 2B: Inhibition of ROS production by MCK151 and Ladarixin in uveal melanoma cells. MP41 cells were treated for 48 hours with increasing doses of MCK151 (1 μM, 2.5 μM, and 5 μM) or Ladarixin (10 μM) and ROS quantity was evaluated by cytometry.
ROS assay: Deep Red Reagent was used to assess the level of intracellular ROS. The CellROX/Deep Red reagent (which is initially non-fluorescent) freely enters the cells, where it is cleaved by endogenous esterases. After oxidization by ROS, the reagent becomes highly fluorescent with an absorption/emission maximal of 644/665 nm. Cells were treated 24h and incubated at 37° C. with CellROX Deep Red reagent (0.01 umol/L) for 2 h. The cells were then washed with PBS and analyzed by cytometry.

The mark [3] stands for this setting: MM66 cells (liver metastases), 48 h, Table 3, read-out: IC50 (μM) at 48 h MM66.
[4] abbreviates: 48 h, Table 3, read-out: IC50 (μM) at 48 h MP41.

Consider 14 compounds from patent publication US20240199562A1, “UREA DERIVATIVES FOR TREATING UVEAL MELANOMA” (CENTRE NATIONAL DE LA RECHERCHE SCIENTIFIQUE, priority 2021, published 2024).

Where two headings read alike, the source gives them in different places.

On to `Cc1cccc(NC(=O)Nc2nc3ccc([N+](=O)[O-])cc3o2)c1` [MCK153, 1-(6-nitrobenzo[d]oxazol-2-yl)-3-(m-tolyl)urea], for which the IC50 – broadly, the concentration needed to halve the response being measured – is 12 µM in the test on MM66 cells (setting [3]) and 30 µM in the test on MP41 cells [1] (setting [4]).
The corresponding values for `O=C(Nc1ccccc1)Nc1nc2ccc([N+](=O)[O-])cc2[nH]1` [MCK157, 1-(6-nitro-1H-benzo[d]imidazol-2-yl)-3-phenylurea] are 10 µM and 8 µM.
For `O=C(Nc1cccc(Cl)c1)Nc1nc2ccc([N+](=O)[O-])cc2s1` [MCK140, 1-(3-chlorophenyl)-3-(6-nitrobenzo[d]thiazol-2-yl)urea], the half-maximal inhibitory concentration (IC50) with MM66 cells (setting [3]) stood at 1.25 µM; in the test on MM66 cells (MM66 cells (liver metastasis), 48 hours, XTT, Table 2, read-out: IC50 (μM) UM MM66) it was 1.25 µM; in the test on MP41 cells [1] (setting [4]), 1 µM; in the test with MP41 cells [1] (48 hours, XTT, Table 2, read-out: IC50 (μM) UM MP41) it was 1 µM; with MP38 cells (MP38 cells (primary tumor), 48 hours, XTT), 1 µM. The viability of cells result in the test on MM66 cells (MM66 cells from liver metastases, in words) is “decreased the viability”; with MP41 cells [1] (MP41 cells from the primary tumor, in words), “decreased the viability”; in the test on MP38 cells (MP38 cells from the primary tumor, in words) it was “decreased the viability”.
In the case of `Nc1ccc2nc(NC(=O)Nc3cccc(Cl)c3)sc2c1` [MCK148, 1-(6-aminobenzo[d]thiazol-2-yl)-3-(3-chlorophenyl)urea], the IC50 in the test on MM66 cells (setting [3]) and with MP41 cells [1] (setting [4]) was 50 µM throughout.
In the case of `O=C(Nc1cccc(Cl)c1)Nc1nc2ccc(Br)cc2s1` [MCK159, 1-(6-bromobenzo[d]thiazol-2-yl)-3-(3-chlorophenyl)urea], the results for the half-maximal inhibitory concentration (IC50) in the test with MM66 cells (setting [3]) and in the test on MP41 cells [1] (setting [4]) were 10 µM and 20 µM, respectively.
As for `O=C(Nc1cccc(Cl)c1)Nc1nc2ccc(-c3cccc4ccccc34)cc2s1` [MCK164, 1-(3-chlorophenyl)-3-(6-(naphthalen-1-yl)benzo[d]thiazol-2-yl)urea], the results for the half-inhibitory concentration (IC50) with MM66 cells (setting [3]) and with MP41 cells [1] (setting [4]) were 5 µM and 10 µM, respectively.
The corresponding values for `O=C(Nc1cccc(Cl)c1)Nc1nc2ccc(-c3ccccn3)cc2s1` [MCK172, 1-(3-chlorophenyl)-3-(6-(pyridin-2-yl)benzo[d]thiazol-2-yl)urea] are 25 µM and 30 µM.
The corresponding values for `CCOc1ccc2nc(NC(=O)Nc3ccccc3C)sc2c1` [MCK133, 1-(6-ethoxybenzo[d]thiazol-2-yl)-3-(o-tolyl)urea] are 20 µM and 15 µM.
Consider `C[C@@H](Oc1cc(NS(=O)(=O)N2CCC2)nc(SCc2cccc(F)c2F)n1)[C@@H](O)CO` [AZD-5069, reference compound], for which the “metabolism of UM cells (XTT)” value with MM66 cells (48 hours) and in the test with MP41 cells [1] (48 hours) was “no effect” in each case.
As to `CCOc1ccc2nc(NC(=O)Nc3ccc(OC)cc3)sc2c1` [MCK135, 1-(6-ethoxybenzo[d]thiazol-2-yl)-3-(4-methoxyphenyl)urea], the IC50 with MM66 cells (setting [3]) and in the test on MP41 cells [1] (setting [4]) was 50 µM in each case.
Take `C[C@@H](C(=O)NS(C)(=O)=O)c1ccc(OS(=O)(=O)C(F)(F)F)cc1` [Ladarixin, reference compound]: the “metabolism of UM cells (XTT)” value in the test with MM66 cells (48 hours) and in the test with MP41 cells [1] (48 hours) was “no effect” in each case. For the same compound, the “ROS production by UM cells” value with MP41 cells [2] was “no effect”.
On to `O=C(Nc1nc2ccc([N+](=O)[O-])cc2s1)Nc1ccccc1Cl` [MCK139, 1-(2-chlorophenyl)-3-(6-nitrobenzo[d]thiazol-2-yl)urea], for which the 50% inhibitory concentration (IC50) in the test with MM66 cells (setting [3]) is 15 µM; in the test with MP41 cells [1] (setting [4]) it was 20 µM.
The corresponding values for `CC(=O)Nc1ccc2nc(NC(=O)Nc3cccc(Cl)c3)sc2c1` [MCK149, N-(2-(3-(3-chlorophenyl)ureido)benzo[d]thiazol-6-yl)acetamide] are 25 µM and 40 µM.
The corresponding values for `O=C(Nc1ccccc1)Nc1nc2ccccc2[nH]1` [MCK113, 1-(1H-benzo[d]imidazol-2-yl)-3-phenylurea] are 40 µM and 32 µM.
